Three compounds from patent US20260262642A1, “Compositions Containing Guanidine and 1,2-Benzisothiazoline-3-On” (priority 2023, published 2026) can be followed below.

Molecules are shown by their SMILES. Counter-ions that a name gives are not always drawn.

Common to all, as to type: cell-based
In assay [1] the test system is Yeast mixture (Pichia manshurica DSM 12249, Rhodotorula mucilaginosa DSM 12248, Candida boidinii DSM 13622, Candida albicans DSM 1386). Nature of the assay: Stability of heavy-duty laundry detergent against microbial infestation, inoculated with yeast mixture, semiquantitative streak evaluation. Details: key: 0: No growth; Minimal growth, 1 to 10 colonies visible over the entire streak; 2: Light growth, maximum 100 colonies; Moderate growth, maximum 300 to 400 colonies; Uniform growth, >400 colonies, single colonies still clearly recognizable; 5: Heavy growth, too many colonies to count, but no growth over the entire streak; 6: Full growth, barely any single colonies still apparent, growth over the entire streak. Conditions: for Yeast growth Day 1: directly after inoculation; for Yeast growth Day 3: incubation at 30° C. Here is the method:
(§1) The detergent was a heavy-duty laundry detergent without preservatives (pH 8.1), and the cleaning composition was an all-purpose detergent without preservatives (pH 7.6), each likewise made in the laboratory, without addition of the otherwise usual conventional preservatives. To each paint was added—individually and in combination—particular concentrations of guanidinium hydrochloride and benzisothiazolinone (BIT). The detergent and cleaning composition were admixed with particular concentrations of guanidinium hydrochloride and benzisothiazolinone (BIT). The resultant batches of the paint thus prepared were inoculated with a mixture of various bacteria; the batches of the detergent and cleaning composition thus prepared were inoculated with a yeast mixture. • Pichia manshurica DSM 12249 • Rhodotorula mucilaginosa DSM 12248 • Candida boidinii DSM 13622 • Candida albicans DSM 1386 The inoculum was added to the respective sample in each inoculation at 2% (v/w) as a fresh cell suspension in a physiological saline solution (0.9% NaCl). The cell count of the inoculum added was 10^9/ml for the bacteria mixture, 10^8/ml for the yeast mixture, consisting in equal parts of the individual bacteria strains or yeast strains. The cell suspension of the yeast mixture was produced by growing the yeasts on Sabouraud glucose-agar at 25° C. for 48 hours and washing down the cell lawn with physiological saline solution (0.9% NaCl). Further steps for establishment of a cell count of the inoculum suspension of 10^8/ml were effected analogously to the production of the bacteria suspension. In examples 2 to 4, the samples were inoculated once with the respective cell suspensions (2% v/w) and the development of the bacteria or yeasts was followed by a semiquantitative evaluation method. In the inoculated samples, microbial infestation was evaluated in each case directly after inoculation on day 1 and on day 6 (emulsion paint) after incubation at 30° C. for a further 5 days, or on day 3 (detergent, cleaning composition) after incubation at 30° C. for a further 2 days. For this purpose, an aliquot was taken from each sample after homogenization using a sterile plastic inoculation loop (10 μl) and streaked evenly on agar plates (tryptic soy agar in the case of bacteria, Sabouraud glucose-agar in the case of yeasts). The streaked agar plates were then incubated at 30° C. for 48 hours (bacteria) or at 25° C. for 72 hours (yeasts). After incubation, the bacterial or yeast colonies that had grown on the agar plates were visually evaluated and quantified according to the following scheme: [table] Inoculation 2% w/v with a East Mixture, Cell Count 10^8/ml

The test system of assay [2] is Pseudomonas spec. DSM 115322. Nature of the assay: Study of the synergistic interaction: minimum inhibitory concentrations (MICs) and synergy index in Müller-Hinton broth, microplates. Conditions: 48 hours at 30° C.; for Synergy index Qa/QA + Qb/QB: sole agent. Here is the method: The test organism used was a Gram-negative bacterial species from the group of pseudomonads, Pseudomonas spec. DSM 115322. For this purpose, mixtures with different concentrations of the respective actives were prepared and tested for their effect on pseudomonads. The test was run in Müller-Hinton broth MHB with a cell density of 10^6 microbes per ml. The incubation was run in microplates at 30° C. for 48 hours. After 48 hours, the batches were evaluated for turbidity resulting from growth, and optical density was additionally determined photometrically. In this way, the minimum inhibitory concentrations (MICs) of the two actives were determined individually and in combination. The synergism that occurred was represented numerically by calculating the synergy index (SI). The calculation was done according to the standard method of F. C. Kull et al., Applied Microbiology, vol. 9 (1961), p. 538. This involves calculating the synergy index (SI) by the following formula: […] Calculation of the synergy index of guanidine and BIT with respect to Pseudomonas spec.

Assay [3] deals with Yeast mixture (Pichia manshurica DSM 12249, Rhodotorula mucilaginosa DSM 12248, Candida boidinii DSM 13622, Candida albicans DSM 1386). The experiment in a line: Stability of all-purpose detergent (cleaning composition) against microbial infestation, inoculated with yeast mixture, semiquantitative streak evaluation. Set-up: key to Yeast growth Day 1: 0: No growth; Minimal growth, 1 to 10 colonies visible over the entire streak; 2: Light growth, maximum 100 colonies; Moderate growth, maximum 300 to 400 colonies; Uniform growth, >400 colonies, single colonies still clearly recognizable; 5: Heavy growth, too many colonies to count, but no growth over the entire streak; 6: Full growth, barely any single colonies still apparent, growth over the entire streak. Conditions: for Yeast growth Day 1: directly after inoculation; for Yeast growth Day 3: incubation at 30° C. Here is the method:
as §1, with “(w/v)” for “w/v”, “Yeast” for “a East”

Assay [4] deals with Bacteria mixture (Pseudomonas spp. DSM 33933, Pseudomonas aeruginosa DSM 33935, Pseudomonas oleovorans DSM 33936, Pseudomonas spec. DSM 33937, Pseudomonas …). Nature of the assay: Stability of emulsion paint against microbial infestation, inoculated with bacteria mixture, semiquantitative streak evaluation. Conditions: for Bacterial growth Day 1: directly after inoculation; for Bacterial growth Day 6: incubation at 30° C. Details: key: 0: No growth; Minimal growth, 1 to 10 colonies visible over the entire streak; 2: Light growth, maximum 100 colonies; Moderate growth, maximum 300 to 400 colonies; Uniform growth, >400 colonies, single colonies still clearly recognizable; 5: Heavy growth, too many colonies to count, but no growth over the entire streak; 6: Full growth, barely any single colonies still apparent, growth over the entire streak. Here is the method:
The detergent was a heavy-duty laundry detergent without preservatives (pH 8.1), and the cleaning composition was an all-purpose detergent without preservatives (pH 7.6), each likewise made in the laboratory, without addition of the otherwise usual conventional preservatives. To each paint was added—individually and in combination—particular concentrations of guanidinium hydrochloride and benzisothiazolinone (BIT). The detergent and cleaning composition were admixed with particular concentrations of guanidinium hydrochloride and benzisothiazolinone (BIT). The resultant batches of the paint thus prepared were inoculated with a mixture of various bacteria; the batches of the detergent and cleaning composition thus prepared were inoculated with a yeast mixture. • Pseudomonas spp. (Pseudomonas oleovorans group) DSM 33933 • Pseudomonas aeruginosa DSM 33935 • Pseudomonas oleovorans DSM 33936 • Pseudomonas spec. DSM 33937 • Pseudomonas aeruginosa DSM 33938 The inoculum was added to the respective sample in each inoculation at 2% (v/w) as a fresh cell suspension in a physiological saline solution (0.9% NaCl). The cell count of the inoculum added was 10^9/ml for the bacteria mixture, 10^8/ml for the yeast mixture, consisting in equal parts of the individual bacteria strains or yeast strains. The cell suspension of the bacteria mixture was produced by growing the individual bacteria at 30° C. for 24 h in liquid culture on a shaker. The growth medium used for the bacteria was Müller-Hinton liquid medium. After growing, the individual liquid cultures were centrifuged, and the cells were resuspended in physiological saline solution. In order to adjust the mixture to a total cell count of 10^9/ml, the individual bacteria suspensions, if necessary, were diluted accordingly before being combined with saline solution. The cell count of the inoculum was determined in each case by chamber counting. In examples 2 to 4, the samples were inoculated once with the respective cell suspensions (2% v/w) and the development of the bacteria or yeasts was followed by a semiquantitative evaluation method. In the inoculated samples, microbial infestation was evaluated in each case directly after inoculation on day 1 and on day 6 (emulsion paint) after incubation at 30° C. for a further 5 days, or on day 3 (detergent, cleaning composition) after incubation at 30° C. for a further 2 days. For this purpose, an aliquot was taken from each sample after homogenization using a sterile plastic inoculation loop (10 μl) and streaked evenly on agar plates (tryptic soy agar in the case of bacteria, Sabouraud glucose-agar in the case of yeasts). […] After incubation, the bacterial or yeast colonies that had grown on the agar plates were visually evaluated and quantified according to the following scheme: [table] […]

The mark [5] stands for this setting: all-purpose detergent +100 ppm BIT.
The mark [6] stands for this setting: detergent +8000 ppm guanidine hydrochloride (4944 ppm guanidine).
The mark [7] stands for this setting: all-purpose detergent +8000 ppm guanidine hydrochloride (4944 ppm guanidine).
[8] abbreviates: emulsion paint +6000 ppm guanidine hydrochloride (3708 ppm guanidine).

For `O=c1[nH]sc2ccccc12` [BIT, 1,2-benzisothiazolin-3-one], in assay [1] (detergent +100 ppm BIT), the “Yeast growth Day 1” value was 6 and the “Yeast growth Day 3” value is on record as 4 (Uniform growth, >400 colonies, single colonies still clearly recognizable). The “Qb (BIT): concentration of BIT as the sole agent that shows an endpoint (QB, MIC)” value in assay [2] (BIT alone (0 ppm guanidine), MHB, 10^6 microbes per ml) was 300 ppm. Moreover, in assay [2], the “Synergy index Qa/QA + Qb/QB” value amounted to 1.00. In assay [3] (setting [5]), the “Yeast growth Day 1” value is listed as 6 and the “Yeast growth Day 3” value is listed as 4 (Uniform growth, >400 colonies, single colonies still clearly recognizable). In assay [4] (emulsion paint +500 ppm BIT), the “Bacterial growth Day 1” value amounted to 6 and the “Bacterial growth Day 6” value was found to be 6.
Regarding `N=C(N)N` [guanidine hydrochloride], in assay [1] (setting [6]), the “Yeast growth Day 1” value is on record as 6 and the “Yeast growth Day 3” value was 6. Further, in assay [3] (setting [7]), the “Yeast growth Day 1” value is listed as 6 and the “Yeast growth Day 3” value is listed as 4 (Uniform growth, >400 colonies, single colonies still clearly recognizable). In assay [4] (setting [8]), the “Bacterial growth Day 1” value was found to be 6 and the “Bacterial growth Day 6” value is 6.
Take `N=C(N)N` [guanidine]: the “Qa (guanidine): concentration of guanidine as the sole agent that shows an endpoint (QA, MIC)” value in assay [2] (guanidine alone (0 ppm BIT), added as guanidine hydrochloride, MHB) stood at 9269 ppm. For the same compound, the “Synergy index Qa/QA + Qb/QB” value in assay [2] is 1.00.
